# B1: IL-4: interleukin-4, cytokine (protein, UniProt P05112 25-153, looked up)
# Interleukin-4: HKCDITLQEIIKTLNSLTEQKTLCTELTVTDIFAASKNTTEKETFCRAATVLRQFYSHHEKDTRCLGATAQQFHRHKQLIRFLKRLDRNLWGLAGLNSCPVKEANQSTLENFLERLKTIMREKYSKCSS
# Test system: P19 cells
# Experiment: Neuritogenesis on mouse P19 cells
# Format: cell-based
# Conditions: dose of 10 nM; after 12 hours of treatment
# Protocol: The P19 cells are derived from a mouse embryonic carcinoma. They are pluripotent cells, which can change into neurones or into glial cells by treatment with retinoic acid (J. Cell. Biol. 1982 August, 94 (2): pp. 253-262) and can differentiate into muscle cells in the presence of dimethyl sulfoxide (Nature 1982-9 September, 299(58 79): pp. 165-167).
# The P19 cells are cultured in the presence of an “RPMI 1640” culture medium sold by the company “Gibco BRL”, this medium being supplemented with 2 mM of glutamine and 4% by weight of fetal calf serum. They are inoculated at low density (10 000 cells per 60-mm well). The P19 cells are treated with the compound of example 6; they are then observed by phase-contrast microscopy. […]
row,Molecule,change in morphology of P19 cells toward dendrites
1,"CC(C)CCC[C@@H](C)[C@H]1CC[C@H]2C3=C[C@@H](NCCCNCCCCNCCCN)[C@@]4(O)C[C@@H](O)CC[C@]4(C)[C@H]3CC[C@]12C [Example 7, cholest-7-ene-3β,5α-diol-6β-N-[N,N′-bis(3-aminopropyl)butane-1,4-diamine]]",same observations
2,"CC(C)CCC[C@@H](C)[C@H]1CC[C@H]2[C@@H]3C[C@@H](NCCCNCCCCNCCCN)[C@@]4(O)C[C@@H](O)CC[C@]4(C)[C@H]3CC[C@]12C [Example 5, cholestane-3β,5α-diol-6β-N-[N,N′-bis(3-aminopropyl)butane-1,4-diamine]]",same observations
3,"CC[C@H](CC[C@@H](C)[C@H]1CC[C@H]2[C@@H]3C[C@@H](NCCCCNCCCN)[C@@]4(O)C[C@@H](O)CC[C@]4(C)[C@H]3CC[C@]12C)C(C)C [Example 44, sitostane-3β,5α-diol-6β-N-[1-N1-(3-aminopropyl)butane-1,4-diamine]]",same observations
4,"CC[C@H](CC[C@@H](C)[C@H]1CC[C@H]2[C@@H]3C[C@@H](NCCCNCCCCNCCCN)[C@@]4(O)C[C@@H](O)CC[C@]4(C)[C@H]3CC[C@]12C)C(C)C [Example 42, sitostane-3β,5α-diol-6β-N-[N,N′-bis(aminopropyl)butane-1,4-diamine]]",same observations
5,"CC(C)[C@H](C)CC[C@@H](C)[C@H]1CC[C@H]2[C@@H]3C[C@@H](NCCCCNCCCN)[C@@]4(O)C[C@@H](O)CC[C@]4(C)[C@H]3CC[C@]12C [Example 45, campestane-3β,5α-diol-6β-N-[1-N-1-(3-aminopropyl)butane-1,4-diamine]]",same observations
6,"CC(C)[C@H](C)CC[C@@H](C)[C@H]1CC[C@H]2[C@@H]3C[C@@H](NCCCNCCCCNCCCN)[C@@]4(O)C[C@@H](O)CC[C@]4(C)[C@H]3CC[C@]12C [Example 43, campestane-3β,5α-diol-6β-N-[N,N′-bis(aminopropyl)butane-1,4-diamine]]",same observations
7,"CC(C)CCC[C@@H](C)[C@H]1CC[C@H]2[C@@H]3C[C@@H](NCCCCNCCCN)[C@@]4(O)C[C@@H](O)CC[C@]4(C)[C@H]3CC[C@]12C [Example 4, cholestane-3β,5α-diol-6β-N-[1-N1-(3-aminopropyl)butane-1,4-diamine]]",same observations
8,"CC(C)CCC[C@@H](C)[C@H]1CC[C@H]2C3=C[C@@H](NCCCCNCCCN)[C@@]4(O)C[C@@H](O)CC[C@]4(C)[C@H]3CC[C@]12C [Example 6, cholest-7-ene-3β,5α-diol-6β-N-[1-N-1-(3-aminopropyl)butane-1,4-diamine]]",formation of dendrites

# Test system: C57BL/6 mouse spleen monocytes
# Experiment: Dendritogenesis on C57BL/6 mouse spleen monocytes
# Format: cell-based
# Conditions: dose of 1 nM, 36 hours after the start of action
# Protocol: 1) On C57BL/6 Mouse Spleen Monocytes
# 5-week-old mice are sacrificed by cervical dislocation. They are then dissected. The spleens are removed under sterile conditions and then placed in a cold solution (4° C.) containing serum-free culture medium supplemented with antibiotics (streptomycin and penicillin). The spleens are ground in a sterile fume cupboard and then filtered through a 100 μm filter. The eluate is recovered and then centrifuged at 1000 rpm for 5 minutes at 4° C. The cell pellet is resuspended in phosphate-buffered saline (PBS) solution containing […], the purpose of which is to lyze the red blood cells. The suspension is centrifuged at 1000 rpm and the cells are then resuspended in PBS. The washing operation is performed twice. The final resuspension is performed in whole culture medium, and the cells are counted and distributed into six-well dishes at a density of 40 000 cells/ml. Four hours later, the adhering cells are washed vigorously with PBS in order to remove the cells that might remain attached to the adhering cells or to the culture dish.
# The conversion was obtained with a dose of 1 nM, the photograph having been taken 36 hours after the start of action of the product. The test product is that of example 9. The appearance of cellular extensions is observed, which is one of the main characteristics of activated dendritic cells.
row,Molecule,"morphological changes on the mouse monocytes, conversion into dendritic cells"
1,"NCCc1c[nH]cn1 [amine, 2-(1H-imidazol-4-yl)ethylamine, reference compound]",ineffective
2,"CC(C)CCC[C@@H](C)[C@H]1CC[C@H]2[C@@H]3CC=C4C[C@@H](O)CC[C@]4(C)[C@H]3CC[C@]12C [cholesterol, reference compound]",ineffective
3,"CC(C)CCC[C@@H](C)[C@H]1CC[C@H]2[C@@H]3C[C@@H]4O[C@@]45C[C@@H](O)CC[C@]5(C)[C@H]3CC[C@]12C [epoxy-cholesterol derivative, 5,6-α-epoxycholestan-3β-ol, reference compound]",ineffective
4,GM-CSF: cytokine used with IL-4 to differentiate monocytes into dendritic cells,ineffective
5,B1,ineffective

# Test system: U-937 cells
# Experiment: Production of IL-12p70 and IL-10 by the dendritic cells (ELISA)
# Format: cell-based, human
# Conditions: treatments extending over a period of two weeks
# Protocol: The culture supernatants are frozen at a temperature of −80° C. until the time of testing for the presence of cytokines. The presence of IL-12p70 and IL-10 is measured using ELISA kits obtained from “Endogen” (Woburn, Mass., USA).
# This phenomenon continues for the two weeks of treatment.
row,Molecule,transcription/production of IL-10
1,"campestane-3β,5α-diol-6β-N-{[2-(1H-imidazol-4-yl)ethyl]ethylamine} [Example 47]",same observations
2,"sitostane-3β,5α-diol-6β-N-{[2-(1H-imidazol-4-yl)ethyl]ethylamine} [Example 46]",same observations

# Test system: PC12 cells
# Experiment: Neuritogenesis on PC12 cells
# Format: cell-based
# Conditions: dose of 10 nM, action time 36 hours
# Protocol: The PC12 cells were cultured at an initial density of 1.5×10^5 cells/ml in RPMI 1640 medium supplemented with 10% fetal calf serum and 5% horse serum. The base of the culture dishes is treated with a 0.1 wt % polylysine or collagen solution in order to cause adhesion of the cells. The supernatant cells are removed after 12 hours and then treated with or without nerve growth factor (NGF) at 10 ng/ml, with or without the compound of example 6 or of example 7. The cells are observed by phase-contrast microscopy.
# The PC12 cells treated by means of the compound of example 6 were treated at a dose of 10 nM, the action time of the compound being 36 hours.
row,Molecule,change in morphology of PC12 cells toward dendrites
1,"CC(C)CCC[C@@H](C)[C@H]1CC[C@H]2C3=C[C@@H](NCCCCNCCCN)[C@@]4(O)C[C@@H](O)CC[C@]4(C)[C@H]3CC[C@]12C [Example 6, cholest-7-ene-3β,5α-diol-6β-N-[1-N-1-(3-aminopropyl)butane-1,4-diamine]]",formation of dendrites
